Where two headings read alike, the source gives them in different places. Non-standard residues stand in square brackets, D forms with d. Residues, ends and D or L forms follow the SMILES beside them. No end group written: not given here. *: point of attachment. NMeF = CN[C@@H](Cc1ccccc1)C(=O)O; X1 = O=C(Cc1ccc(O)cc1)*
Columns and labels:
NPFF1 (SNORF2) = target: T1, NPFF1 (SNORF2) (Rattus norvegicus, UniProt Q9EP86); test: Voltage-clamp electrophysiology, Xenopus oocytes injected with SNORF2 (NPFF1) and chimeric Gαq/z RNA; type: cell-based; conditions: for activation of oocytes injected with SNORF2 synthetic RNA: concentration not given; for inward current response: 1 μM, oocytes with SNORF2 + Gαq/z, holding potential −80 mV
T1 construct: linearized plasmids or PCR products containing the complete coding region of the genes; expressed in transfected cells; host or cells: Xenopus laevis oocytes injected with synthetic RNA (T7 transcripts)
Experimental: Oocytes were harvested from Xenopus laevis and injected with mRNA transcripts as previously described (Quick and Lester, 1994; Smith et al., 1997). […] Three to eight hours prior to recording, oocytes were injected with 500 pg Gαq/z mRNA in order to observe coupling to Ca^++ activated Cl^− currents. Dual electrode voltage clamp (Axon Instruments Inc.) was performed using 3 M KCl-filled glass microelectrodes having resistances of 1-2 Mohm. Unless otherwise specified, oocytes were voltage clamped at a holding potential of −80 mV. During recordings, oocytes were bathed in continuously flowing (1-3 ml/min) medium containing 96 mM NaCl, 2 mM KCl, 1.8 mM CaCl2, 1 mM MgCl2, and 5 mM HEPES, pH 7.5 (ND96). Drugs were applied either by local perfusion from a […] glass capillary tube fixed at a distance of 0.5 mm from the oocyte, or by switching from a series of gravity fed perfusion lines.
Heterologous expression of GPCRs in Xenopus oocytes has been widely used to determine the identity of signaling pathways activated by agonist stimulation (Gundersen et al., 1983; Takahashi et al., 1987). Activation of the phospholipase C (PLC) pathway is assayed by applying test compound in ND96 solution to oocytes previously injected with mRNA for the mammalian receptor and observing inward currents at a holding potential of −80 mV. The appearance of currents that reverse at −25 mV and display other properties of the Ca^++-activated Cl^− (chloride) channel is indicative of mammalian receptor-activation of PLC and release of IP3 and intracellular Ca^++.

[1] = target: rat spinal cord membrane receptor; test: [125I]D-Tyr-NPFF radioligand binding, rat spinal cord membranes; conditions: competition of [125I]D-Tyr-NPFF binding; * = differs from NPFF1
Source text: The binding profile of rat NPFF1 was compared to that of rat spinal cord membranes. […] (See * Table 2).

rat NPFF1 receptor = rat NPFF1 receptor (Rattus norvegicus, UniProt Q9EP86); test: [125I]D-Tyr-NPFF radioligand binding, membranes of COS-7 cells transiently expressing cloned rat NPFF1; set-up: expressed in transfected cells; host or cells: COS-7 (transient)
Experimental: Transfected cells from culture flasks are scraped into 5 ml of 20 mM Tris-HCl, 5 mM EDTA, pH 7.5, and lysed by sonication. The cell lysates are centrifuged at 1000 rpm for 5 min. at 4° C., and the supernatant is centrifuged at 30,000×g for 20 min. at 4° C. […] Optimal membrane suspension dilutions, defined as the protein concentration required to bind less than 10% of the added radioligand, […], unlabeled compounds, and binding buffer to a final volume of 250 μl. In equilibrium saturation binding assays membrane preparations are incubated in the presence of increasing concentrations of [^3H]-labeled compound. […] Competition assay: 50 pM radioligand, 10-12 points. Binding reaction mixtures are incubated for 2 hr at 25° C., and the reaction stopped by filtration through a double layer of GF filters treated with 0.1% polyethyleneimine, using a cell harvester. Wash buffer: 50 mM Tris-HCl, 0.1% BSA. Radioactivity may be measured by scintillation counting and data are analyzed by a computerized non-linear regression program. Non-specific binding is defined as the amount of radioactivity remaining after incubation of membrane protein in the presence of 1 μM final concentration […]. Protein concentration may be measured by the Bradford method using Bio-Rad Reagent, with bovine serum albumin as a standard.
Cos-7 cells transiently expressing the gene encoding the novel rat NPFF1 receptor were used for pharmacological evaluation.

[2] = competition of [125I]D-Tyr-NPFF binding, COS-7 membranes
[3] = competition of [125I]D-Tyr-NPFF binding, COS-7 membranes, read-out: pKi for cloned rat NPFF1 receptor binding in COS-7 cells, MEAN (converted)

T1 sequence (Q9EP86 whole entry): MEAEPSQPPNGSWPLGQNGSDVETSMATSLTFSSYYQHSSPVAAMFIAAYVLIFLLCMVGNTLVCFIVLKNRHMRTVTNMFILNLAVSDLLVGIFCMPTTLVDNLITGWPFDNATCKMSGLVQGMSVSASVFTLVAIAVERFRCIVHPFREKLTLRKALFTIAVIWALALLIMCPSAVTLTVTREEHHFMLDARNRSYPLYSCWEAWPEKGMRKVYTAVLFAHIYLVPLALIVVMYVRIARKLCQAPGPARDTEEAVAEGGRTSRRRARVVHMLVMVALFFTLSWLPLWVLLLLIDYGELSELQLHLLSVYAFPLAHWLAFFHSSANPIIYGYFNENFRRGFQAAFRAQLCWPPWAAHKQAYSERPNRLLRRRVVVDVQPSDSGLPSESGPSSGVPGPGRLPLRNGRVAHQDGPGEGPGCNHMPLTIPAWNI
Sequence of rat NPFF1 receptor (Q9EP86 whole entry): as above

Row | Molecule | pKi for rat spinal cord membrane receptor binding, MEAN [1] | Ki (rat NPFF1 receptor; [3]) [µM] | further results
1 | NCCc1c[nH]c2ccc(O)cc12 [5-HT] |  |  | activation of oocytes injected with SNORF2 synthetic RNA (NPFF1 (SNORF2)): failed to activate
2 | CC(C)C[C@@H](NC(=O)[C@H](N)Cc1ccc(O)cc1)C(=O)N[C@@H](Cc1ccccc1)C(=O)N[C@@H](CCC(N)=O)C(=O)N1CCC[C@H]1C(=O)N[C@@H](CCC(N)=O)C(=O)N[C@@H](CCCNC(=N)N)C(=O)N[C@@H](Cc1ccccc1)C(N)=O [(2D)Y8Fa] (H-[dY][dL]FQPQRF-NH2; N-terminus assumed) | *9.212 |  | pKi for cloned rat NPFF1 receptor binding in COS-7 cells, MEAN (rat NPFF1 receptor; [2]): 8.33
3 | CC(C)C[C@@H](NC(=O)[C@H](N)Cc1ccc(O)cc1)C(=O)N(C)[C@@H](Cc1ccccc1)C(=O)N[C@@H](CCC(N)=O)C(=O)N1CCC[C@H]1C(=O)N[C@@H](CCC(N)=O)C(=O)N[C@@H](CCCNC(=N)N)C(=O)N[C@@H](Cc1ccccc1)C(N)=O [(2DME)Y8Fa] (H-[dY][dL][NMeF]QPQRF-NH2; N-terminus assumed) | 9.57 |  | pKi for cloned rat NPFF1 receptor binding in COS-7 cells, MEAN (rat NPFF1 receptor; [2]): 9.2
4 | CC(C)C[C@@H](NC(=O)[C@H](N)Cc1ccc(O)cc1)C(=O)N[C@H](Cc1ccccc1)C(=O)N[C@@H](CCC(N)=O)C(=O)N1CCC[C@H]1C(=O)N[C@@H](CCC(N)=O)C(=O)N[C@@H](CCCNC(=N)N)C(=O)N[C@@H](Cc1ccccc1)C(N)=O [(3D)Y8Fa] (H-[dY][dL][dF]QPQRF-NH2; N-terminus assumed) | 9.123 |  | 
5 | CSCC[C@H](NC(=O)[C@H](Cc1ccc(OS(=O)(=O)O)cc1)NC(=O)[C@@H](N)CC(=O)O)C(=O)NCC(=O)N[C@@H](Cc1c[nH]c2ccccc12)C(=O)N[C@@H](CCSC)C(=O)N[C@@H](CC(=O)O)C(=O)N[C@@H](Cc1ccccc1)C(N)=O [CCK8] |  |  | pKi for cloned rat NPFF1 receptor binding in COS-7 cells, MEAN (rat NPFF1 receptor; [2]): ≤ 5
6 | N=C(N)NCCC[C@@H](N)C(=O)O [D-arginine] |  | ≥ 10 | 
7 | N=C(N)NCCC[C@H](NC(=O)[C@H](Cc1ccccc1)NC(=O)[C@@H](N)Cc1ccccc1)C(=O)N[C@@H](Cc1ccccc1)C(N)=O [FFRF] (H-FFRF-NH2; N-terminus and C-terminus assumed) | 8.98 |  | pKi for cloned rat NPFF1 receptor binding in COS-7 cells, MEAN (rat NPFF1 receptor; [2]): 8
8 | C[C@@H](O)[C@H](NC(=O)[C@@H](N)Cc1ccccc1)C(=O)N[C@@H](CCCNC(=N)N)C(=O)N[C@@H](Cc1ccccc1)C(N)=O [FTRF] (H-FTRF-NH2; N-terminus and C-terminus assumed) | 8.16 |  | pKi for cloned rat NPFF1 receptor binding in COS-7 cells, MEAN (rat NPFF1 receptor; [2]): 7.87
9 | N=C(N)NCCC[C@H](N)C(=O)O [L-arginine] |  | ≥ 10 | 
10 | CSCC[C@H](NC(=O)[C@@H]1CCCN1)C(=O)N[C@@H](CCCNC(=N)N)C(=O)N[C@@H](Cc1ccccc1)C(N)=O [PMRFa] (H-PMRF-NH2; N-terminus assumed) | 9.37 |  | 
11 | CC(C)C[C@H](NC(=O)[C@H](Cc1ccccc1)NC(=O)Cc1ccc(O)cc1)C(=O)N[C@@H](Cc1ccccc1)C(=O)N[C@@H](CCC(N)=O)C(=O)N1CCC[C@H]1C(=O)N[C@@H](CCC(N)=O)C(=O)N[C@@H](CCCNC(=N)N)C(N)=O [desamino-nor-Y8Ra] (X1-FLFQPQR-NH2) | 7.51 |  | pKi for cloned rat NPFF1 receptor binding in COS-7 cells, MEAN (rat NPFF1 receptor; [2]): 7.27
12 | CNCCCN1c2ccccc2CCc2ccccc21 [desipramine] |  | ≥ 10 | 
13 | NCCc1ccc(O)c(O)c1 [dopamine] |  | ≥ 10 | 
14 | CCNC(C)Cc1cccc(C(F)(F)F)c1 (stereo not drawn) [fenfluramine] |  | ≥ 10 | 
15 | COc1ccc2c(c1)[nH]c1c(C)nccc12 [harmine] |  |  | Ki (rat NPFF1 receptor): ≥ 10 µM
16 | C[C@@H]1CN([C@H]2CC[C@](C#N)(c3ccc(F)cc3)CC2)CC[C@]1(C(=O)O)c1ccccc1 [levocabastine] |  | ≥ 10 | 
17 | CC(C)C[C@H](NC(=O)[C@H](CCCCN)NC(=O)[C@H](CCCN=C(N)N)NC(=O)[C@H](C)NC(=O)[C@H](CO)NC(=O)[C@H](CCCCN)NC(=O)[C@H](CCCN=C(N)N)NC(=O)[C@H](C)NC(=O)CNC(=O)[C@@H](NC(=O)[C@H](Cc1ccccc1)NC(=O)CNC(=O)CNC(=O)[C@@H](N)Cc1ccccc1)[C@@H](C)O)C(=O)N[C@@H](C)C(=O)N[C@@H](CC(N)=O)C(=O)N[C@@H](CCC(N)=O)C(=O)O [nociceptin] |  |  | Ki (rat NPFF1 receptor): ≥ 10 µM
18 | Cc1nc2sccn2c(=O)c1CCN1CCC(=C(c2ccc(F)cc2)c2ccc(F)cc2)CC1 [ritanserine] |  | ≥ 10 | 
19 | AGEGLSSPYWSLAAPQRF-NH2 [[Y^9]A18Fa] | *8.502 |  | inward current response (NPFF1 (SNORF2)): displayed activity
20 | Dynorphin A1-13 | *5.700 |  | 
21 | H-KHQYLRF-NH2 [AF-2, H-Lys-His-Gln-Tyr-Leu-Arg-Phe-NH2] | *7.965 | 0.0948 | 
22 | H-KNQFIRF-NH2 [AF-1, H2N-Lys-Asn-Gln-Phe-Ile-Arg-Phe-NH2] | *7.563 | 0.232 | 
23 | H-PDVDHVFLRF-NH2 [SchistFLRF] | 6.39 |  | 
24 | PDKDFIVNPSDLVLDNKAALRDYLRQINEYFAIIGRPRF-NH2 (C-terminus assumed) [Neuropeptide F] | *8.100 |  | pKi for cloned rat NPFF1 receptor binding in COS-7 cells, MEAN (rat NPFF1 receptor; [2]): 6.11
25 | TEPGLEEVGEIEQKQLQ [nocistatin] |  |  | pKi for cloned rat NPFF1 receptor binding in COS-7 cells, MEAN (rat NPFF1 receptor; [2]): ≤ 5
26 | YLFQPQRF-NH2 [Y8Fa] | *9.189 |  | inward current response (NPFF1 (SNORF2)): displayed activity
27 | melanin concentrating hormone |  |  | activation of oocytes injected with SNORF2 synthetic RNA (NPFF1 (SNORF2)): failed to activate
28 | orexin B |  |  | activation of oocytes injected with SNORF2 synthetic RNA (NPFF1 (SNORF2)): failed to activate
29 | CCK: unrelated neuropeptide (peptide, UniProt P06307 21-115, looked up, Cholecystokinin, unrelated neuropeptide) Cholecystokinin: QPVPPADPAGSGLQRAEEAPRRQLRVSQRTDGESRAHLGALLARYIQQARKAPSGRMSIVKNLQNLDPSHRISDRDYMGWMDFGRRSAEEYEYPS |  |  | activation of oocytes injected with SNORF2 synthetic RNA (NPFF1 (SNORF2)): failed to activate
